Data taken from the supplement of paper PMC7840683.
Structures can show the parent of a compound that is named as a salt. ± gives the standard deviation of the averaged measurements.

System: HepaRG
Assay: LDH release cytotoxicity, % of total lysis control; higher = more cytotoxic
Conditions: 48 h
Outline: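 On collagen I-coated 96-well plates, single-lot HepaRG cells were exposed for 48 h, in duplicate, to eight-point half-log series of test chemicals beginning at 100 µM. The exposure medium was serum-free induction medium with 0.5% DMSO, and total lysis wells got 0.1% Triton X. Resorufin fluorescence from the CytoTox-ONE reaction, read on a Tecan Safire, reported LDH in 50 µL of spent medium. Percent cytotoxicity came from normalization to on-plate vehicle and total lysis controls, averaged over the duplicates.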

Row | Compound | LDH release cytotoxicity (0.03162 µM) [%] | LDH release cytotoxicity (0.1 µM) [%] | LDH release cytotoxicity (0.3162278 µM) [%] | LDH release cytotoxicity (1 µM) [%] | LDH release cytotoxicity (3.16228 µM) [%] | LDH release cytotoxicity (10 µM) [%] | LDH release cytotoxicity (31.6228 µM) [%] | LDH release cytotoxicity (100 µM) [%] | also measured
1 | NC(=O)c1nc(-c2cccc(-c3cc(F)ccc3OCC(F)(F)C(F)(F)F)c2)n[nH]1 [MK-274] | -1.29 ± 0.91 | -0.429 ± 0.81 | -0.661 ± 0.16 | -1.07 ± 0.22 | -0.753 ± 0.38 | -0.915 ± 0.94 | 0.166 ± 0.068 | 86.6 ± 1.7 | 
2 | CCCCc1ccc2c(n1)C(c1ccc(OC)cc1CC(C)C(=O)O)C(C(=O)O)C2c1ccc2c(c1)OCO2 (stereo not given) [MK-547] | -0.553 ± 0.95 | -1.23 ± 0.22 | -0.915 ± 0.25 | -1.66 ± 0.29 | -0.888 ± 0.3 | -0.832 ± 0.16 | -0.204 ± 0.43 | 0.0481 ± 0.055 | 
3 | CCn1nc(Cc2ccccc2)cc1C1CCN(CC2CC(N(C)C(C(=O)O)C(C)C)CC2c2cccc(F)c2)CC1 (stereo not given) [MK-578] | -1.06 ± 0.49 | -1.8 ± 0.42 | -1.85 ± 0.13 | -2.168 ± 0.0097 | -2.16 ± 0.039 | -1.47 ± 0.29 | -1.08 ± 0.3 | 9.55 ± 0.94 | 
4 | COC1COCCC1NC1CCC(C(=O)N2CCc3ncc(C(F)(F)F)cc3C2)(C(C)C)C1 (stereo not given) [MK-812] | 0.0558 ± 0.81 | -1.65 ± 0.31 | -1.72 ± 0.43 | -2.52 ± 1.1 | -1.87 ± 1 | -1.43 ± 0.51 | -1.59 ± 0.027 | -0.0412 ± 0.23 | 
5 | Fc1ccccc1C(F)COC1CCC(Nc2[nH]cnc3nncc2-3)CC1 (stereo not given) [MK-968] | -1.09 ± 1.7 | -1.55 ± 0.47 | -2.19 ± 0.36 | -2.2 ± 0.68 | -2.43 ± 0.47 | -2.42 ± 0.46 | 1.23 ± 0.027 | 10.8 ± 2.6 | 
6 | CCOC(=O)CC(SP(=O)(OC)OC)C(=O)OCC (stereo not given) [Malaoxon] |  | -1.49 ± 0.13 |  | -2.43 ± 0.17 | -2.14 ± 0.62 | -2.43 ± 0.25 | -1.77 ± 0.98 | -0.859 ± 0.23 | LDH release cytotoxicity (0.031623 µM): -0.0319 ± 0.49%; LDH release cytotoxicity (0.316228 µM): -2.33 ± 1.5%
7 | CCOC(=O)CC(SP(=S)(OC)OC)C(=O)OCC (stereo not given) [Malathion] | 0.138 ± 0.34 | -0.944 ± 0.55 | -0.165 ± 0.55 | -0.829 ± 0.26 | -0.0242 ± 0.075 | -0.216 ± 0.19 | -0.432 ± 0.52 | 0.626 ± 0.78 | 
8 | O=c1ccc(=O)[nH][nH]1 [Maleic hydrazide] | -0.979 ± 0.52 | -0.493 ± 0.19 | -1.74 ± 0.22 | -0.384 ± 0.92 | -1.91 ± 0.55 | -1.15 ± 0.52 | 0.124 ± 0.07 | 2.69 ± 1.4 | 
9 | O=C(O)CC(O)C(=O)O (stereo not given) [Malic acid] | -1.2 ± 0.52 | -1.77 ± 0.018 | -1.39 ± 0.22 | -1.28 ± 1.3 | -1.27 ± 0.26 | -1.41 ± 0.57 | -1.33 ± 0.1 | 0.326 ± 0.19 | 
10 | CC1OC=CC(=O)C1=O (stereo not given) [Maltol] |  |  |  |  |  |  |  |  | LDH release cytotoxicity (0.032888 µM): -1.82 ± 0.089%; LDH release cytotoxicity (0.104 µM): -1.46 ± 1.1%; LDH release cytotoxicity (0.328877 µM): -2.18 ± 0.095%; LDH release cytotoxicity (1.04 µM): -3.62 ± 0.59%; LDH release cytotoxicity (3.28877 µM): -2.64 ± 0.45%; LDH release cytotoxicity (10.4 µM): -1.92 ± 0.23%; LDH release cytotoxicity (32.8877 µM): -1.627 ± 0.0032%; LDH release cytotoxicity (104 µM): 0.353 ± 0.45%
11 | S=C([S-])NCCNC(=S)[S-].S=C([S-])NCCNC(=S)[S-].[Mn+2].[Zn+2] [Mancozeb] |  |  |  |  |  |  |  |  | LDH release cytotoxicity (0.01581 µM): -1.38 ± 0.48%; LDH release cytotoxicity (0.05 µM): -1.29 ± 0.95%; LDH release cytotoxicity (0.1581139 µM): -2.2 ± 0.12%; LDH release cytotoxicity (0.5 µM): -0.828 ± 0.04%; LDH release cytotoxicity (1.5811388 µM): 30.3 ± 1.4%; LDH release cytotoxicity (5 µM): 68.2 ± 0.83%; LDH release cytotoxicity (15.8114 µM): 72.55 ± 0.27%; LDH release cytotoxicity (50 µM): 77.11 ± 0.33%
12 | S=C(S)NCCNC(=S)S [Maneb] |  | -3.72 ± 0.66 |  | -4.15 ± 0.23 | 25.2 ± 5.5 | 75.5 ± 4.6 | 77.2 ± 2.5 | 77.7 ± 3 | LDH release cytotoxicity (0.031623 µM): -0.532 ± 1.1%; LDH release cytotoxicity (0.316228 µM): -2.09 ± 1.5%
13 | CC#Cc1cc(C)nc(Nc2ccccc2)n1 [Mepanipyrim] | -1.35 ± 0.26 | -1.3 ± 0.77 | -1.45 ± 0.36 | -1.69 ± 0.92 | -0.377 ± 0.77 | 0.835 ± 1.1 | 2.41 ± 0.37 | 11.4 ± 0.23 | 
14 | [Cl][Hg][Cl] [Mercuric chloride] | -0.633 ± 0.43 | 0.0218 ± 0.9 | -0.338 ± 0.41 | -0.378 ± 0.19 | 0.165 ± 0.14 | -0.398 ± 0.26 | -1.52 ± 0.15 | -4.6 ± 0.1 | 
15 | CS(=O)(=O)c1ccc(C(=O)C2C(=O)CCCC2=O)c([N+](=O)[O-])c1 [Mesotrione] |  |  |  |  |  |  |  |  | LDH release cytotoxicity (0.0320971 µM): 0.286 ± 0.54%; LDH release cytotoxicity (0.1015 µM): -0.676 ± 1.3%; LDH release cytotoxicity (0.320971 µM): -1.35 ± 0.82%; LDH release cytotoxicity (1.015 µM): -0.8 ± 0.14%; LDH release cytotoxicity (3.2097118 µM): -0.694 ± 0.22%; LDH release cytotoxicity (10.15 µM): -1.17 ± 0.99%; LDH release cytotoxicity (32.0971 µM): -1.09 ± 0.39%; LDH release cytotoxicity (101.5 µM): -1.76 ± 0.31%
16 | COCC(=O)N(c1c(C)cccc1C)C(C)C(=O)OC (stereo not given) [Metalaxyl] | -1.86 ± 0.61 | -0.811 ± 0.78 | -0.303 ± 0.27 | -0.996 ± 0.099 | -0.0482 ± 0.74 | -0.0413 ± 0.72 | 0.228 ± 0.89 | 2.83 ± 2.6 | 
17 | CNC(=S)S [Metam-sodium hydrate] | -0.462 ± 0.042 | -0.61 ± 0.22 | -0.991 ± 0.45 | -1.25 ± 0.15 | -0.486 ± 0.41 | -0.405 ± 0.015 | -0.218 ± 0.1 | 1.15 ± 0.05 | 
18 | C=C(C)C(N)=O [Methacrylamide] | 0.244 ± 0.55 | -1.11 ± 0.47 | -1.39 ± 0.69 | -1.09 ± 0.82 | -1.32 ± 1.9 | -0.285 ± 1.1 | -0.444 ± 0.94 | 2.64 ± 0.98 | 
19 | CCC(=O)C(CC(C)N(C)C)(c1ccccc1)c1ccccc1 (stereo not given) [Methadone hydrochloride] |  |  |  |  |  |  |  |  | LDH release cytotoxicity (0.0229265 µM): -1.18 ± 0.096%; LDH release cytotoxicity (0.0725 µM): -0.8 ± 0.26%; LDH release cytotoxicity (0.2292651 µM): -1.01 ± 0.75%; LDH release cytotoxicity (0.725 µM): -1.59 ± 0.11%; LDH release cytotoxicity (2.29265 µM): -0.919 ± 0.09%; LDH release cytotoxicity (7.25 µM): -0.638 ± 0.73%; LDH release cytotoxicity (22.926513 µM): 0.191 ± 1.1%; LDH release cytotoxicity (72.5 µM): 7.87 ± 0.83%
20 | COP(N)(=O)SC (stereo not given) [Methamidophos] | 5.78 ± 0.77 | 2.73 ± 1.8 | 2.4 ± 2.4 | 3.67 ± 3.3 | 3.79 ± 2.6 | 3.76 ± 1.4 | 5.99 ± 0.16 | 6.57 ± 0.57 | 
